Assay results reported in ChEMBL document CHEMBL5131424, “Synthesis and evaluation of antibacterial and trypanocidal activity of derivatives of monensin A” (Bioorg Med Chem Lett, 2022).
≈ marks a conversion by molar mass, not a printed value.

What was measured:
Staphylococcus aureus [1] = assay: Antibacterial activity against Staphylococcus aureus ATCC 25923; assay type: functional
Staphylococcus aureus [2] = assay: Antibacterial activity against Staphylococcus aureus ATCC 29213; assay type: functional
[3] = tested on: Staphylococcus epidermidis; assay: Antibacterial activity against Staphylococcus epidermidis 840/19; assay type: functional
HL-60 = assay: (§1) Cytotoxicity against human HL-60 cells assessed as reduction in cell viability measured after 24 hrs by resazurin dye based assay; assay type: toxicity; conditions: hl-60, 24 h
[4] = as §1; assay type: toxicity; conditions: HL-60 cells
Staphylococcus aureus [5] = assay: Antibacterial activity against Staphylococcus aureus NCTC 4163; assay type: functional
[6] = tested on: Staphylococcus epidermidis; assay: Antibacterial activity against Staphylococcus epidermidis ATCC 35984; assay type: functional
Staphylococcus aureus [7] = assay: Antibacterial activity against Staphylococcus aureus ATCC 6538; assay type: functional
Pseudomonas aeruginosa [8] = assay: Antibacterial activity against Pseudomonas aeruginosa ATCC 15442; assay type: functional
[9] = tested on: Staphylococcus epidermidis; assay: Antibacterial activity against Staphylococcus epidermidis 825/19; assay type: functional
[10] = tested on: Staphylococcus epidermidis; assay: Antibacterial activity against Staphylococcus epidermidis ATCC 12228; assay type: functional
[11] = tested on: Staphylococcus epidermidis; assay: Antibacterial activity against Staphylococcus epidermidis 834/19; assay type: functional
Trypanosoma brucei = assay: Antitrypanosomal activity against bloodstream form of Trypanosoma brucei clone 427-221a measured after 24 hrs by resazurin dye based assay; assay type: functional
[12] = tested on: Staphylococcus epidermidis; assay: Antibacterial activity against Staphylococcus epidermidis 829/19; assay type: functional
Pseudomonas aeruginosa [13] = assay: Antibacterial activity against Pseudomonas aeruginosa […]; assay type: functional
[14] = tested on: Staphylococcus epidermidis; assay: Antibacterial activity against Staphylococcus epidermidis 848/19; assay type: functional
[15] = Selectivity ratio of MIC for cytotoxicity against human HL-60 cells to MIC for antitrypanosomal activity against bloodstream form of Trypanosoma brucei clone 427-221a; assay type: toxicity, cell-based
Escherichia coli [16] = assay: Antibacterial activity against Escherichia coli ATCC 25922; assay type: functional
[17] = Selectivity ratio of GI50 for cytotoxicity against human HL-60 cells to GI50 for antitrypanosomal activity against bloodstream form of Trypanosoma brucei clone 427-221a; assay type: toxicity, cell-based; conditions: read-out: RatioGI50
[18] = tested on: Staphylococcus epidermidis; assay: Antibacterial activity against Staphylococcus epidermidis 830/19; assay type: functional
[19] = tested on: Staphylococcus epidermidis; assay: Antibacterial activity against Staphylococcus epidermidis 845/19; assay type: functional
Escherichia coli [20] = assay: Antibacterial activity against Escherichia coli NCTC 10538; assay type: functional
[21] = tested on: Staphylococcus epidermidis; assay: Antibacterial activity against Staphylococcus epidermidis 851/19; assay type: functional

Row | Structure (SMILES) | MIC (Staphylococcus aureus [1]) [µg/mL] | MIC [3] [µg/mL] | MIC (Staphylococcus aureus [5]) [µg/mL] | MIC [6] [µg/mL] | MIC (Pseudomonas aeruginosa [8]) [µg/mL] | MIC [9] [µg/mL] | MIC [10] [µg/mL] | MIC [11] [µg/mL] | GI50 (Trypanosoma brucei) [µM] | MIC (Trypanosoma brucei) [µM] | MIC [12] [µg/mL] | MIC (Pseudomonas aeruginosa [13]) [µg/mL] | MIC [14] [µg/mL] | MIC [18] [µg/mL] | MIC [19] [µg/mL] | MIC [21] [µg/mL] | MIC (HL-60) [µM] | GI50 at 24 h [4] [µM] | selectivity ratio [15] | selectivity ratio [17] | other results
1 | CO[C@H]([C@H](C)[C@H]1O[C@@]2(CC[C@@](C)([C@H]3CC[C@@](CO)([C@@H]4O[C@@H]([C@H]5O[C@@](O)(COC(=O)NCCCCl)[C@H](C)C[C@@H]5C)C[C@@H]4C)O3)O2)C[C@H](O)[C@H]1C)[C@H](C)C(=O)O | 2 (≈ 2.52 µM) | 8 (≈ 10.1 µM) | 2 (≈ 2.52 µM) | 4 (≈ 5.05 µM) | > 256 | 2 (≈ 2.52 µM) | 4 (≈ 5.05 µM) | 4 (≈ 5.05 µM) | 3.05 | 10 (≈ 7.92 µg/mL) | 4 (≈ 5.05 µM) | > 256 | 8 (≈ 10.1 µM) | 4 (≈ 5.05 µM) | 4 (≈ 5.05 µM) | 4 (≈ 5.05 µM) | 100 (≈ 79.2 µg/mL) | 18.1 | 10 | 5.9 | MIC (Staphylococcus aureus [2]): 4 µg/mL (≈ 5.05 µM); MIC (Staphylococcus aureus [7]): 2 µg/mL (≈ 2.52 µM); MIC (Escherichia coli [16]): > 256 µg/mL; MIC (Escherichia coli [20]): > 256 µg/mL
2 | CCCCNC(=O)OC[C@]1(O)O[C@H]([C@H]2C[C@H](C)[C@H]([C@]3(CO)CC[C@H]([C@]4(C)CC[C@]5(C[C@H](O)[C@@H](C)[C@@H]([C@@H](C)[C@@H](OC)[C@H](C)C(=O)O)O5)O4)O3)O2)[C@@H](C)C[C@H]1C | 1 (≈ 1.3 µM) | 2 (≈ 2.59 µM) | 1 (≈ 1.3 µM) | 1 (≈ 1.3 µM) | > 256 | 1 (≈ 1.3 µM) | 1 (≈ 1.3 µM) | 2 (≈ 2.59 µM) | 0.47 | 10 (≈ 7.72 µg/mL) | 1 (≈ 1.3 µM) | > 256 | 2 (≈ 2.59 µM) | 1 (≈ 1.3 µM) | 2 (≈ 2.59 µM) | 2 (≈ 2.59 µM) | 100 (≈ 77.2 µg/mL) | 11.4 | 19 | 24.3 | MIC (Staphylococcus aureus [2]): 2 µg/mL (≈ 2.59 µM); MIC (Staphylococcus aureus [7]): 1 µg/mL (≈ 1.3 µM); MIC (Escherichia coli [16]): > 256 µg/mL; MIC (Escherichia coli [20]): > 256 µg/mL
3 | O=C(O)c1cn(C2CC2)c2cc(N3CCNCC3)c(F)cc2c1=O [CIPROFLOXACIN] | 0.5 (≈ 1.51 µM) | ≤ 0.125 | 0.25 (≈ 0.754 µM) | 0.25 (≈ 0.754 µM) | < 0.125 | 4 (≈ 12.1 µM) | 0.5 (≈ 1.51 µM) | ≤ 0.125 |  |  | ≤ 0.125 | < 0.125 | ≤ 0.125 | 64 (≈ 193 µM) | 16 (≈ 48.3 µM) | ≤ 0.125 |  |  |  |  | 
4 | Cc1ccc(C(=O)Nc2ccc(S(=O)(=O)O)c3cc(S(=O)(=O)O)cc(S(=O)(=O)O)c23)cc1NC(=O)c1cccc(NC(=O)Nc2cccc(C(=O)Nc3cc(C(=O)Nc4ccc(S(=O)(=O)O)c5cc(S(=O)(=O)O)cc(S(=O)(=O)O)c45)ccc3C)c2)c1 [SURAMIN] |  |  |  |  |  |  |  |  | 0.05 | 1 (≈ 1.3 µg/mL) |  |  |  |  |  |  | > 100 | > 100 | > 100 | > 2000 | 

Now from value to compound, other results behind:

Row | MIC (Staphylococcus aureus [1]) [µg/mL] | MIC [3] [µg/mL] | MIC (Staphylococcus aureus [5]) [µg/mL] | MIC [6] [µg/mL] | MIC (Pseudomonas aeruginosa [8]) [µg/mL] | MIC [9] [µg/mL] | MIC [10] [µg/mL] | MIC [11] [µg/mL] | GI50 (Trypanosoma brucei) [µM] | MIC (Trypanosoma brucei) [µM] | MIC [12] [µg/mL] | MIC (Pseudomonas aeruginosa [13]) [µg/mL] | MIC [14] [µg/mL] | MIC [18] [µg/mL] | MIC [19] [µg/mL] | MIC [21] [µg/mL] | Structure (SMILES) | MIC (HL-60) [µM] | GI50 at 24 h [4] [µM] | selectivity ratio [15] | selectivity ratio [17] | other results
5 | 1 (≈ 1.24 µM) | 2 (≈ 2.48 µM) | 1 (≈ 1.24 µM) | 2 (≈ 2.48 µM) | > 256 | 1 (≈ 1.24 µM) | 1 (≈ 1.24 µM) | 2 (≈ 2.48 µM) | 0.31 | 1 (≈ 0.806 µg/mL) | 2 (≈ 2.48 µM) | > 256 | 2 (≈ 2.48 µM) | 2 (≈ 2.48 µM) | 2 (≈ 2.48 µM) | 2 (≈ 2.48 µM) | CO[C@H]([C@H](C)[C@H]1O[C@@]2(CC[C@@](C)([C@H]3CC[C@@](CO)([C@@H]4O[C@@H]([C@H]5O[C@@](O)(COC(=O)NCc6ccccc6)[C@H](C)C[C@@H]5C)C[C@@H]4C)O3)O2)C[C@H](O)[C@H]1C)[C@H](C)C(=O)O | 100 (≈ 80.6 µg/mL) | 19.5 | 100 | 62.9 | MIC (Staphylococcus aureus [2]): 2 µg/mL (≈ 2.48 µM); MIC (Staphylococcus aureus [7]): 1 µg/mL (≈ 1.24 µM); MIC (Escherichia coli [16]): > 256 µg/mL; MIC (Escherichia coli [20]): > 256 µg/mL
6 | 1 (≈ 1.29 µM) | 2 (≈ 2.57 µM) | 1 (≈ 1.29 µM) | 1 (≈ 1.29 µM) | > 256 | 0.5 (≈ 0.644 µM) | 1 (≈ 1.29 µM) | 1 (≈ 1.29 µM) | 2.62 | 10 (≈ 7.77 µg/mL) | 2 (≈ 2.57 µM) | > 256 | 2 (≈ 2.57 µM) | 1 (≈ 1.29 µM) | 2 (≈ 2.57 µM) | 1 (≈ 1.29 µM) | CO[C@H]([C@H](C)[C@H]1O[C@@]2(CC[C@@](C)([C@H]3CC[C@@](CO)([C@@H]4O[C@@H]([C@H]5O[C@@](O)(COC(=O)c6ccccc6)[C@H](C)C[C@@H]5C)C[C@@H]4C)O3)O2)C[C@H](O)[C@H]1C)[C@H](C)C(=O)O | 100 (≈ 77.7 µg/mL) | 18.3 | 10 | 7 | MIC (Staphylococcus aureus [2]): 1 µg/mL (≈ 1.29 µM); MIC (Staphylococcus aureus [7]): 1 µg/mL (≈ 1.29 µM); MIC (Escherichia coli [16]): > 256 µg/mL; MIC (Escherichia coli [20]): > 256 µg/mL
